The text below walks through data of patent US9446047B2, “Substituted 2,3-dihydro-1H-inden-1-one retinoic acid-related orphan nuclear receptor antagonists for treating multiple sclerosis” (Arrien Pharmaceuticals LLC, priority 2013, dated 2016).

One assay addresses T1, RORγ-LBD (RORγt) (Homo sapiens, UniProt P51449).
T1 construct: the 6-His-(GST) RORγ-LBD was used which expressed and purified from baculovirus infected Sf-21 insect cells; made in house; host or cells: baculovirus-infected Sf-21 insect cells
T1 sequence (P51449 269-508 limits assumed): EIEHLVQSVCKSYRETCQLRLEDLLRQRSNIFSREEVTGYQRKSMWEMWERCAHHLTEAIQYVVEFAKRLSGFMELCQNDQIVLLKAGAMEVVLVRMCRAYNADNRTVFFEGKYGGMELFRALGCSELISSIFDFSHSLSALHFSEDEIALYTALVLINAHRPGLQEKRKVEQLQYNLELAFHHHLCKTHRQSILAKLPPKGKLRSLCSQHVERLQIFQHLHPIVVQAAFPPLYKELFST
Kind of assay: TR-FRET RORγt Binding Assay. The following applies: 6-His(GST)RORγ-LBD, SRC1_2 peptide. As to the method:
TR-FRET RORγt Binding Assay: RORγ-LBD contains a 6-His and GST tag peptide from SRC1-2 an aminoterminal biotinyl-[…] was employed and the 6-His-(GST) RORγ-LBD was used which expressed and purified from baculovirus infected Sf-21 insect cells from Invitrogen and purified using glutathione sepharose. […] The peptide binding due to dose-curves of compounds was added the 0.1% DMSO. Fluorescence at wavelength 340 nm was read in each well of […] using an Envision fluorescence reader in Time Resolved mode after overnight incubation at 4° C.

For the next assay, the target named is T2, RORγt (Homo sapiens, UniProt P51449).
T2 construct: host or cells: IL-17A Prom/LUCPorter HEK 293 cell line (IMGENEX, IML-301)
T2 sequence (P51449 1-497 isoform P51449-2): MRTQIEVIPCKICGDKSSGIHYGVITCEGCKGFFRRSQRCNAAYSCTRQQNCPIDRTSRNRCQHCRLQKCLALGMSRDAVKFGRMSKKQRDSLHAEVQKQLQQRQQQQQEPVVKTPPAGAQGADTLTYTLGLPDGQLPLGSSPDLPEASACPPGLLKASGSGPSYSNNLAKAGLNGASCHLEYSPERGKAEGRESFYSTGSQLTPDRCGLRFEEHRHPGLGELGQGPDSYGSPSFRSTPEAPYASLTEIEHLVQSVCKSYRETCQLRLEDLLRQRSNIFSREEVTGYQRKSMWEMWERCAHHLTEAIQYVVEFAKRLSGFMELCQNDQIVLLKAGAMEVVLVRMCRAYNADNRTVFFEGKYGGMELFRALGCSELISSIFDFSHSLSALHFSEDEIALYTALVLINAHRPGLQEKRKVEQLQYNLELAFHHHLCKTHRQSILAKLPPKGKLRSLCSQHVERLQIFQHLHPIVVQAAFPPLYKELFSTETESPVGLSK
Kind of assay: RORγt-activated IL-17A Prom/LUCPorter HEK 293 cells luciferase reporter assay. The settings on record: IL-17A Prom/LUCPorter HEK 293 cells transfected with RORγt, 16 h. It counts as cell-based. As for the experimental part: Antagonistic (or inverse agonistic) effects of the test compounds on the RORγt-activated IL-17A Prom/LUCPorter™ HEK 293 cells were analyzed and IC50 of each compound was evaluated. […] Luciferase activity was analyzed using the luciferase reporter assay reagent (IMGENEX, LS100). The data were analyzed using Excel and Prism software. Percent activity was defined as 100×(1−(Well−Control A)/(Control B−Control A)), where Control A was the wells containing cells transfected with RORγt and Control B was the wells containing non-transfected cells. Both Controls A and B were treated with vehicle alone.

Assay [1] has as its system IL-17 release from CD4+ T cells. Kind of assay: Cytokine IL-17 estimation by HTRF, IL-17 release from CD4+ T cells. The class given is cell-based. The following applies: Homo sapiens, read-out: IL-17 Inhibition. From the text:
The assay was designed to assess the potency of test compounds on IL-17 cytokine release from CD4+ T cells. In order to aid in the identification of potent inhibitors, the IC50's determined for the test compounds IL-17 release from CD4+ T cells through the generation of 10 point Dose Response Curves (DRC). Assay methods used to quantify IL-17 secretion is HTRF (Homogenous Time Resolved Fluorescence). IL-17 secreted is detected by anti-IL-17 MAb labeled with XL665, the second MAb labeled with Cryptate, which binds to specific epitopes of human IL-17. Upon close proximity of both acceptor and donor energy transfer (FRET) occurs. This technique has been further enhanced by using long-lived labels combined with the detection on a time-resolved fluorescence basis, allowing […] of prompt fluorescence interferences.
The assay was performed according to manufacturer's instruction. All the reagents were reconstituted according to instructions provided. The reagents were dispensed into a half area 96-well plate in the following order: […] or sample, IL-17 MAbXL665 and 5 μL IL-17 Cryptate. For the negative control, the standard or sample is replaced by […]. The plate is covered with a plate sealer and incubated at rt for 2 h. Following incubation, the plate sealer is removed and the plate is read using HTRF protocol on Envision Microplate reader. All of the data analysis was carried out using Microsoft Excel (2010) and IC50 was determined using GraphPad Prism 4 software. % Inhibition of the test compounds were determined utilizing the following formula: % Inhibition=100−(100*(Average Test Compound Counts−Average Negative Control Counts)/(Average Positive Control Counts−Average Negative Control Counts)).
We have established robust in vitro cell-based HTRF assay for the activation and stimulation of CD4+ T lymphocytes to T helper 17 (Th17) cell differentiation and IL-17 production.

Setting [2] is: IL-17 release from CD4+ T cells, HTRF.

Like-named read-outs stand apart in the source and are kept apart here.

Take `COc1cc2c(cc1N1CCOCC1)CC(Cc1ccc(Cl)cc1F)C2=O` (stereo not drawn) [compound 16, 2-(4-chloro-2-fluorobenzyl)-6-methoxy-5-morpholino-2,3-dihydro-1H-inden-1-one]: the IC50 (on RORγ-LBD (RORγt) (read-out: RORγt Binding); on RORγt (read-out: RORγt Cell Specific); in assay [1] (setting [2])) was more than 1 µM throughout.
Regarding `COc1cc2c(cc1N1CCN(C)C(C)C1)CC(Cc1ccc(Cl)cc1F)C2=O` (stereo not drawn) [compound 20, 2-(4-chloro-2-fluorobenzyl)-5-(3,4-dimethylpiperazin-1-yl)-6-methoxy-2,3-dihydro-1H-inden-1-one], the IC50 was more than 1 µM at RORγ-LBD (RORγt) (read-out: RORγt Binding), more than 10 µM on RORγt (read-out: RORγt Cell Specific) and more than 1 µM in assay [1] (setting [2]).
`COc1cc2c(cc1N1CCOCC1)CC(CC1CCN(Cc3ccccc3)CC1)C2=O` (stereo not drawn) [compound 23, 2-((1-benzylpiperidin-4-yl)methyl)-6-methoxy-5-morpholino-2,3-dihydro-1H-inden-1-one]: the results for the IC50 (on RORγ-LBD (RORγt) (read-out: RORγt Binding); at RORγt (read-out: RORγt Cell Specific); in assay [1] (setting [2])) were less than 0.5 µM, more than 1 µM and less than 0.5 µM, respectively.
Regarding `COc1cc2c(cc1N1CCN(C)C(C)C1)CC(CC1CCN(Cc3ccccc3)CC1)C2=O` (stereo not drawn) [compound 25, 2-((1-benzylpiperidin-4-yl)methyl)-5-(3,4-dimethylpiperazin-1-yl)-6-methoxy-2,3-dihydro-1H-inden-1-one], on RORγt (read-out: RORγt Cell Specific), the IC50 was more than 10 µM.
Regarding `COc1cc2c(cc1N1CCOCC1)CC(Cc1ccc(F)cc1F)C2=O` (stereo not drawn) [compound 28, 2-(2,4-difluorobenzyl)-6-methoxy-5-morpholino-2,3-dihydro-1H-inden-1-one], the IC50 at RORγ-LBD (RORγt) (read-out: RORγt Binding) is more than 1 µM; at RORγt (read-out: RORγt Cell Specific), more than 10 µM; in assay [1] (setting [2]) it was more than 1 µM.
As to `COc1cc2c(cc1N1CCOCC1)C/C(=C\c1cc(Br)cc(OC(F)(F)F)c1)C2=O` [compound 30, (E)-2-(3-bromo-5-(trifluoromethoxy)benzylidene)-6-methoxy-5-morpholino-2,3-dihydro-1H-inden-1-one], the IC50 on RORγ-LBD (RORγt) (read-out: RORγt Binding) was more than 10 µM; at RORγt (read-out: RORγt Cell Specific) it was more than 10 µM; in assay [1] (setting [2]), more than 1 µM.
Turning to `COc1cc2c(cc1N1CCOCC1)CC(Cc1cc(Br)cc(OC(F)(F)F)c1)C2=O` (stereo not drawn) [compound 32, 2-(3-bromo-5-(trifluoromethoxy)benzyl)-6-methoxy-5-morpholino-2,3-dihydro-1H-inden-1-one], the IC50 on RORγ-LBD (RORγt) (read-out: RORγt Binding) is less than 0.5 µM; at RORγt (read-out: RORγt Cell Specific) it was less than 0.5 µM; in assay [1] (setting [2]), more than 1 µM.
`COc1cc2c(cc1N1CCOCC1)CC(Cc1cccc(C(F)(F)F)c1)C2=O` (stereo not drawn) [compound 37, 6-methoxy-5-morpholino-2-(3-(trifluoromethyl)benzyl)-2,3-dihydro-1H-inden-1-one]: the IC50 (at RORγ-LBD (RORγt) (RORγt Binding); against RORγt (RORγt Cell Specific); in assay [1] (setting [2])) was less than 0.5 µM in each case.
For `COc1cc2c(cc1N1CCOCC1)CC(Cc1c(F)cccc1F)C2=O` (stereo not drawn) [compound 42, 2-(2,6-difluorobenzyl)-6-methoxy-5-morpholino-2,3-dihydro-1H-inden-1-one], the IC50 (on RORγ-LBD (RORγt) (read-out: RORγt Binding); in assay [1] (setting [2])) was more than 1 µM throughout.
On to `COc1cc2c(cc1N1CCOCC1)CC(Cc1c(F)ccc(NC3CCN(C)CC3)c1F)C2=O` (stereo not drawn) [compound 44, 2-(2,6-difluoro-3-((1-methylpiperidin-4-yl)amino)benzyl)-6-methoxy-5-morpholino-2,3-dihydro-1H-inden-1-one], for which the IC50 in assay [1] (setting [2]) was more than 10 µM.
Consider `COc1cc2c(cc1N1CCOCC1)CC(Cc1sc(N3CCOCC3)nc1Cl)C2=O` (stereo not drawn) [compound 47, 2-((4-chloro-2-morpholinothiazol-5-yl)methyl)-6-methoxy-5-morpholino-2,3-dihydro-1H-inden-1-one], for which the IC50 (on RORγ-LBD (RORγt) (read-out: RORγt Binding); on RORγt (read-out: RORγt Cell Specific); in assay [1] (setting [2])) was more than 1 µM each time.
On to `COc1cc2c(cc1N1CCOCC1)CC(Cc1cc(Cl)cc(C(F)(F)F)c1)C2=O` (stereo not drawn) [compound 50, 2-(3-chloro-5-(trifluoromethyl)benzyl)-6-methoxy-5-morpholino-2,3-dihydro-1H-inden-1-one], for which the IC50 is less than 0.5 µM on RORγ-LBD (RORγt) (read-out: RORγt Binding), more than 1 µM at RORγt (read-out: RORγt Cell Specific) and more than 1 µM in assay [1] (setting [2]).
As for `COc1cc2c(cc1N1CCOCC1)CC(Cc1cc(Cl)ccc1C(F)(F)F)C2=O` (stereo not drawn) [compound 53, 2-(5-chloro-2-(trifluoromethyl)benzyl)-6-methoxy-5-morpholino-2,3-dihydro-1H-inden-1-one], the IC50 (at RORγ-LBD (RORγt) (read-out: RORγt Binding); on RORγt (read-out: RORγt Cell Specific); in assay [1] (setting [2])) was more than 1 µM in each case.
Regarding `COc1cc2c(cc1N1CCOCC1)CC(Cc1ccc(Cl)cc1C(F)(F)F)C2=O` (stereo not drawn) [compound 56, 2-(4-chloro-2-(trifluoromethyl)benzyl)-6-methoxy-5-morpholino-2,3-dihydro-1H-inden-1-one], the IC50 (on RORγ-LBD (RORγt) (read-out: RORγt Binding); at RORγt (read-out: RORγt Cell Specific); in assay [1] (setting [2])) was more than 1 µM throughout.
As for `COc1cc2c(cc1N1CCOCC1)CC(Cc1c(Cl)cccc1C(F)(F)F)C2=O` (stereo not drawn) [compound 59, 2-(2-chloro-6-(trifluoromethyl)benzyl)-6-methoxy-5-morpholino-2,3-dihydro-1H-inden-1-one], the values for the IC50 (on RORγ-LBD (RORγt) (read-out: RORγt Binding); on RORγt (read-out: RORγt Cell Specific); in assay [1] (setting [2])) were more than 1 µM, more than 10 µM and more than 1 µM, respectively.
For the compound `COc1cc2c(cc1N1CCOCC1)CC(Cc1cc(C(F)(F)F)cnc1Cl)C2=O` (stereo not drawn) [compound 62, 2-((2-chloro-5-(trifluoromethyl)pyridin-3-yl)methyl)-6-methoxy-5-morpholino-2,3-dihydro-1H-inden-1-one], the figures for the IC50 (on RORγ-LBD (RORγt) (read-out: RORγt Binding); on RORγt (read-out: RORγt Cell Specific); in assay [1]) were more than 1 µM, more than 1 µM and less than 0.5 µM, respectively.
Take `COc1cc2c(cc1N1CCOCC1)CC(Cc1ccc(C(F)(F)F)nc1)C2=O` (stereo not drawn) [compound 83]: the IC50 at RORγ-LBD (RORγt) (read-out: RORγt Binding) and on RORγt (read-out: RORγt Cell Specific) was more than 1 µM in each case.
With `COc1cc2c(cc1N1CCN(C)CC1)CC(Cc1cccc(C(F)(F)F)c1)C2=O` (stereo not drawn) [compound 156], the IC50 on RORγ-LBD (RORγt) (read-out: RORγt Binding) is more than 10 µM; on RORγt (read-out: RORγt Cell Specific), less than 0.5 µM.
For `COc1cc2c(cc1N1CCNCC1)CC(Cc1ncccc1C(F)(F)F)C2=O` (stereo not drawn) [compound 249] the same measures were more than 1 µM and less than 0.5 µM.
With `COc1cc2c(cc1N1CCN(C)CC1)CC(Cc1ncccc1C(F)(F)F)C2=O` (stereo not drawn) [compound 250], the IC50 at RORγ-LBD (RORγt) (read-out: RORγt Binding) was more than 1 µM.
In the case of `COc1cc2c(cc1N1CCOCC1)CC(Cc1cncc(C(O)(C(F)(F)F)C(F)(F)F)c1)C2=O` (stereo not drawn) [compound 264], the IC50 at RORγ-LBD (RORγt) (read-out: RORγt Binding) is less than 0.5 µM.
